# In US20240409585A1, “MACROCYCLIC IMMUNOMODULATORS” (priority 2021, published 2024):
# Bridge positions count the residues as written; N and C are the ends. Square brackets hold non-standard residues; d marks the D form. Peptide text beside a SMILES is read from it. * marks the point of attachment. ξ: configuration not given here. Phe(3-CF3) = N[C@@H](Cc1cccc(C(F)(F)F)c1)C(=O)O; Phe(4-COOH) = N[C@@H](Cc1ccc(C(=O)O)cc1)C(=O)O; Asp(3,3-Me2) = CC(C)(C(=O)O)[C@H](N)C(=O)O; Bip = N[C@@H](Cc1ccc(-c2ccccc2)cc1)C(=O)O; Phe(3-Me) = Cc1cccc(C[C@H](N)C(=O)O)c1; Nva(4-oxo) = CC(=O)C[C@H](N)C(=O)O; Val(3-OH) = CC(C)(O)[C@H](N)C(=O)O; 3Pal = N[C@@H](Cc1cccnc1)C(=O)O; 4Pal = N[C@@H](Cc1ccncc1)C(=O)O; Cha = N[C@@H](CC1CCCCC1)C(=O)O; Cit = NC(=O)NCCC[C@H](N)C(=O)O; Thr(3ξ) = CC(O)[C@H](N)C(=O)O; Carboxymethyl = O=C(O)C*; NMeA = CN[C@@H](C)C(=O)O; Orn = NCCC[C@H](N)C(=O)O; Dab = NCC[C@H](N)C(=O)O; Dap = NC[C@H](N)C(=O)O
# Molecular target: T1, PE-labeled human PD-L1-Ig binding to Jurkat cell line over-expressing human PD-1 (Jurkat-PD-1) (Homo sapiens, UniProt Q15116)
# T1 construct: expressed in transfected cells; host or cells: Jurkat
# Experiment: Jurkat-PD-1 Cell Binding High-Content Screening Assay (CBA): Method 1
# Conditions: Jurkat-hPD-1 cells, PE-labeled PD-L1-Ig 20 nM final; read-out: Jurkat HPDL1 PD1 IC50 (uM) (Method 1)
# T1 sequence (Q15116 25-288): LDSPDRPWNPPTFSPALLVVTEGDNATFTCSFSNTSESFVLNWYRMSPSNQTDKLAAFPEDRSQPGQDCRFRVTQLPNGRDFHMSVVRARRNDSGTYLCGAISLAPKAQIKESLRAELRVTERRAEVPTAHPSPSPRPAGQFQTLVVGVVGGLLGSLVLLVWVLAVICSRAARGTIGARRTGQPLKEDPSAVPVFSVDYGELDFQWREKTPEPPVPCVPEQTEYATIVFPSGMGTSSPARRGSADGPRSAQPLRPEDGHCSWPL
row,Structure (SMILES),IC50
1,CC(C)C[C@@H]1NC(=O)[C@H](Cc2c[nH]c3ccccc23)NC(=O)[C@H](CC(=O)O)NC(=O)[C@H](Cc2ccc(O)cc2)NC(=O)[C@H](Cc2ccccc2)NC(=O)CSC[C@@H](C(=O)NCC(N)=O)NC(=O)[C@H](CO)NC(=O)[C@H](C(C)C)NC(=O)[C@H](CC(C)C)NC(=O)[C@H](CC(N)=O)NC(=O)[C@@H](CC(C)C)NC(=O)[C@H](C)N(C)C(=O)[C@H](CCCNC(N)=O)NC(=O)[C@H](Cc2ccc(-c3ccccc3)cc2)NC1=O [Compound 1509] ({CH2CO}-FYDWL[Bip][Cit][NMeA][dL]NLVSCG-NH2; thioether N-14),0.02 µM
2,CC(C)C[C@@H]1NC(=O)[C@H](CCN)NC(=O)[C@@H](CC(C)C)NC(=O)[C@H](C)N(C)C(=O)[C@H](CCCNC(=N)N)NC(=O)[C@H](Cc2ccc(-c3ccccc3)cc2)NC(=O)[C@H](C(C)C)NC(=O)[C@H](Cc2c[nH]c3ccccc23)NC(=O)[C@H](CC(=O)O)NC(=O)[C@H](Cc2ccc(O)cc2)NC(=O)[C@H](Cc2ccccc2)NC(=O)CSC[C@@H](C(=O)N[C@@H](C)C(N)=O)NC(=O)[C@H]([C@@H](C)O)NC(=O)[C@H](C(C)C)NC1=O [Compound 1052] ({CH2CO}-FYDWV[Bip]R[NMeA][dL][Dab]LVTCA-NH2; thioether N-14),0.04 µM
3,CC(C)C[C@@H]1NC(=O)[C@H](CCCNC(=N)N)NC(=O)[C@@H](CC(C)C)NC(=O)[C@H](C)N(C)C(=O)[C@H](CCCNC(=N)N)NC(=O)[C@H](Cc2ccc(-c3ccccc3)cc2)NC(=O)[C@H](C(C)C)NC(=O)[C@H](Cc2c[nH]c3ccccc23)NC(=O)[C@H](CC(=O)O)NC(=O)[C@H](Cc2cccnc2)NC(=O)[C@H](Cc2ccccc2)NC(=O)CSC[C@@H](C(=O)N[C@@H](C)C(N)=O)NC(=O)[C@H]([C@@H](C)O)NC(=O)[C@H](C(C)C)NC1=O [Compound 1101] ({CH2CO}-F[3Pal]DWV[Bip]R[NMeA][dL]RLVTCA-NH2; thioether N-14),0.29 µM
4,CC(C)C[C@@H]1NC(=O)[C@H](CCCN)NC(=O)[C@@H](CC(C)C)NC(=O)[C@H](C)N(C)C(=O)[C@H](CCCNC(=N)N)NC(=O)[C@H](Cc2ccc(-c3ccccc3)cc2)NC(=O)[C@H](C(C)C)NC(=O)[C@H](Cc2c[nH]c3ccccc23)NC(=O)[C@H](CC(=O)O)NC(=O)[C@H](Cc2ccc(O)cc2)NC(=O)[C@H](CC(N)=O)NC(=O)CSC[C@@H](C(=O)N[C@@H](CO)C(N)=O)NC(=O)[C@H]([C@@H](C)O)NC(=O)[C@H](C(C)C)NC1=O [Compound 1177] ({CH2CO}-NYDWV[Bip]R[NMeA][dL][Orn]LVTCS-NH2; thioether N-14),0.12 µM
5,Cc1cccc(C[C@@H]2NC(=O)[C@H](CC(=O)O)NC(=O)[C@H](Cc3ccc(C(=O)O)cc3)NC(=O)[C@H](C(C)O)NC(=O)CSC[C@@H](C(=O)N[C@H](C(N)=O)C(C)(C)O)NC(=O)[C@H](CO)NC(=O)[C@H](C(C)(C)O)NC(=O)[C@H](CC3CCCCC3)NC(=O)[C@H](CCN)NC(=O)[C@@H](CC(C)C)NC(=O)[C@H](C)N(C)C(=O)[C@H](Cc3ccc(OCC(=O)O)cc3)NC(=O)[C@H](Cc3ccc(-c4ccccc4)cc3)NC(=O)[C@H](Cc3ccc(OCC(=O)O)cc3)NC2=O)c1 (stereo partly drawn) [Compound 2202] ({CH2CO}-[Thr(3ξ)][Phe(4-COOH)]D[Phe(3-Me)]Y(Carboxymethyl)[Bip]Y(Carboxymethyl)[NMeA][dL][Dab][Cha][Val(3-OH)]SC[Val(3-OH)]-NH2; thioether N-14),0.5 µM
6,CC(C)C[C@@H]1NC(=O)[C@H](Cc2c[nH]c3ccccc23)NC(=O)[C@H](CC(=O)O)NC(=O)[C@H](Cc2ccncc2)NC(=O)[C@H](CN)NC(=O)CSC[C@@H](C(=O)N[C@@H](C)C(N)=O)NC(=O)[C@H](CO)NC(=O)[C@H](C(C)C)NC(=O)[C@H](CC(C)C)NC(=O)[C@H](CC(N)=O)NC(=O)[C@@H](C)NC(=O)[C@H](C)N(C)C(=O)[C@H](C(C)C)NC(=O)[C@H](Cc2ccc(-c3ccccc3)cc2)NC1=O [Compound 1561] ({CH2CO}-[Dap][4Pal]DWL[Bip]V[NMeA][dA]NLVSCA-NH2; thioether N-14),0.03 µM
7,CC(C)C[C@@H]1NC(=O)[C@H](C)NC(=O)[C@@H](C)NC(=O)[C@H](C)N(C)C(=O)[C@H](C(C)C)NC(=O)[C@H](Cc2ccc(-c3ccccc3)cc2)NC(=O)[C@H](CC(C)C)NC(=O)[C@H](Cc2c[nH]c3ccccc23)NC(=O)[C@H](CC(=O)O)NC(=O)[C@H](Cc2ccc(O)cc2)NC(=O)[C@H](Cc2ccccc2)NC(=O)CSC[C@@H](C(=O)N[C@@H](C)C(N)=O)NC(=O)[C@H](CO)NC(=O)[C@H](C(C)C)NC1=O [Compound 1733] ({CH2CO}-FYDWL[Bip]V[NMeA][dA]ALVSCA-NH2; thioether N-14),0.01 µM
8,CC(C)C[C@@H]1NC(=O)[C@H](CCCN)NC(=O)[C@@H](CC(C)C)NC(=O)[C@H](C)N(C)C(=O)[C@H](CCCNC(=N)N)NC(=O)[C@H](Cc2ccc(-c3ccccc3)cc2)NC(=O)[C@H](C(C)C)NC(=O)[C@H](Cc2c[nH]c3ccccc23)NC(=O)[C@H](CC(=O)O)NC(=O)[C@H](Cc2ccc(O)cc2)NC(=O)[C@H](Cc2ccccc2)NC(=O)CSC[C@@H](C(=O)N[C@@H](C)C(N)=O)NC(=O)[C@H]([C@@H](C)O)NC(=O)[C@H](C(C)C)NC1=O [Compound 1119] ({CH2CO}-FYDWV[Bip]R[NMeA][dL][Orn]LVTCA-NH2; thioether N-14),0.03 µM
9,CC(C)C[C@@H]1NC(=O)[C@H](Cc2c[nH]c3ccccc23)NC(=O)[C@H](CC(=O)O)NC(=O)[C@H](Cc2ccc(O)cc2)NC(=O)[C@H](Cc2ccccc2)NC(=O)CSC[C@@H](C(=O)N[C@@H](C)C(N)=O)NC(=O)[C@H](CO)NC(=O)[C@H](CCCN)NC(=O)[C@H](CC(C)C)NC(=O)[C@H](CC(N)=O)NC(=O)[C@@H](CC(C)C)NC(=O)[C@H](C)N(C)C(=O)[C@H](C(C)C)NC(=O)[C@H](Cc2ccc(-c3ccccc3)cc2)NC1=O [Compound 1537] ({CH2CO}-FYDWL[Bip]V[NMeA][dL]NL[Orn]SCA-NH2; thioether N-14),0.02 µM
10,CC(C)C[C@@H]1NC(=O)[C@H](CCCNC(=N)N)NC(=O)[C@@H](CC(C)C)NC(=O)[C@H](C)N(C)C(=O)[C@H](C(C)C)NC(=O)[C@H](Cc2ccc(-c3ccccc3)cc2)NC(=O)[C@H](C(C)C)NC(=O)[C@H](Cc2cccc(C(F)(F)F)c2)NC(=O)[C@H](CC(=O)O)NC(=O)[C@H](Cc2ccc(O)cc2)NC(=O)[C@H](CC(N)=O)NC(=O)CSC[C@@H](C(=O)N[C@@H](C)C(N)=O)NC(=O)[C@H]([C@@H](C)O)NC(=O)[C@H](C(C)C)NC1=O [Compound 1291] ({CH2CO}-NYD[Phe(3-CF3)]V[Bip]V[NMeA][dL]RLVTCA-NH2; thioether N-14),0.02 µM
11,CC(=O)C[C@@H]1NC(=O)[C@H](Cc2ccc(OCC(=O)O)cc2)NC(=O)[C@H](Cc2ccccc2)NC(=O)CSC[C@@H](C(=O)N[C@@H](C)C(=O)N[C@@H](CCCCN)C(N)=O)NC(=O)[C@H](CO)NC(=O)[C@H](C(C)C)NC(=O)[C@H](CC(C)C)NC(=O)[C@H](CC(N)=O)NC(=O)[C@@H](CC(C)C)NC(=O)[C@H](C)N(C)C(=O)[C@H](C(C)C)NC(=O)[C@H](Cc2ccc(-c3ccccc3)cc2)NC(=O)[C@H](CC(C)C)NC(=O)[C@H](Cc2c[nH]c3ccccc23)NC1=O [Compound 2013] ({CH2CO}-FY(Carboxymethyl)[Nva(4-oxo)]WL[Bip]V[NMeA][dL]NLVSCAK-NH2; thioether N-14),0.01 µM
12,CC(C)C[C@@H]1NC(=O)[C@H](CCN)NC(=O)[C@@H](CC(C)C)NC(=O)[C@H](C)N(C)C(=O)[C@H](Cc2cnc[nH]2)NC(=O)[C@H](Cc2ccc(-c3ccccc3)cc2)NC(=O)[C@H](C(C)C)NC(=O)[C@H](Cc2c[nH]c3ccccc23)NC(=O)[C@H](CC(=O)O)NC(=O)[C@H](Cc2ccc(O)cc2)NC(=O)[C@H](CN)NC(=O)CSC[C@@H](C(=O)N[C@@H](C)C(N)=O)NC(=O)[C@H]([C@@H](C)O)NC(=O)[C@H](C(C)C)NC1=O [Compound 1424] ({CH2CO}-[Dap]YDWV[Bip]H[NMeA][dL][Dab]LVTCA-NH2; thioether N-14),0.05 µM
13,"Cc1cccc(C[C@@H]2NC(=O)[C@H](CC(=O)O)NC(=O)[C@H](Cc3ccc(OCC(=O)O)cc3)NC(=O)[C@H](CCN)NC(=O)CSC[C@@H](C(=O)N[C@H](C(N)=O)C(C)(C)C(=O)O)NC(=O)[C@H](CO)NC(=O)[C@H](C(C)(C)O)NC(=O)[C@H](CC3CCCCC3)NC(=O)[C@H](CCN)NC(=O)[C@@H](CC(C)C)NC(=O)[C@H](C)N(C)C(=O)[C@H](Cc3ccc(OCC(=O)O)cc3)NC(=O)[C@H](Cc3ccc(-c4ccccc4)cc3)NC(=O)[C@H](Cc3ccc(OCC(=O)O)cc3)NC2=O)c1 [Compound 1847] ({CH2CO}-[Dab]Y(Carboxymethyl)D[Phe(3-Me)]Y(Carboxymethyl)[Bip]Y(Carboxymethyl)[NMeA][dL][Dab][Cha][Val(3-OH)]SC[Asp(3,3-Me2)]-NH2; thioether N-14)",0.7 µM
14,CC(C)C[C@@H]1NC(=O)[C@H](CC(N)=O)NC(=O)[C@@H](CC(C)C)NC(=O)[C@H](C)N(C)C(=O)[C@H](C(C)C)NC(=O)[C@H](Cc2ccc(-c3ccccc3)cc2)NC(=O)[C@H](CCN)NC(=O)[C@H](Cc2c[nH]c3ccccc23)NC(=O)[C@H](CC(=O)O)NC(=O)[C@H](Cc2ccc(O)cc2)NC(=O)[C@H](Cc2ccccc2)NC(=O)CSC[C@@H](C(=O)N[C@@H](C)C(N)=O)NC(=O)[C@H](CO)NC(=O)[C@H](CC(=O)O)NC1=O [Compound 2026] ({CH2CO}-FYDW[Dab][Bip]V[NMeA][dL]NLDSCA-NH2; thioether N-14),0.12 µM
15,Cc1cccc(C[C@@H]2NC(=O)[C@H](CC(=O)O)NC(=O)[C@H](Cc3ccc(C(=O)O)cc3)NC(=O)[C@H](Cc3ccncc3)NC(=O)CSC[C@@H](C(=O)N[C@@H](CCN)C(N)=O)NC(=O)[C@H](CO)NC(=O)[C@H](C(C)(C)O)NC(=O)[C@H](CC3CCCCC3)NC(=O)[C@H](CCN)NC(=O)[C@@H](CC(C)C)NC(=O)[C@H](C)N(C)C(=O)[C@H](Cc3ccc(C(=O)O)cc3)NC(=O)[C@H](Cc3ccc(-c4ccccc4)cc3)NC(=O)[C@H](Cc3ccc(OCC(=O)O)cc3)NC2=O)c1 [Compound 2184] ({CH2CO}-[4Pal][Phe(4-COOH)]D[Phe(3-Me)]Y(Carboxymethyl)[Bip][Phe(4-COOH)][NMeA][dL][Dab][Cha][Val(3-OH)]SC[Dab]-NH2; thioether N-14),0.04 µM
